Test results: paper PMC6478789, “A chemical toolbox for the study of bromodomains and epigenetic signaling” (Nature Communications, 2019)

Tests used:
[1] = tested on: three TNBC lines; test: Combinatorial screen of BRD inhibitors with or without BAY-876 (confluency); type: cell-based, human; details: 3 μM probe + 3 μM BAY-876
Protocol: Fig. 6 BRD inhibitors leverage metabolic adaptations induced by glucose transporter I (GLUT1) inhibition in TNBC. a BRD inhibitor screening across ten TNBC cell lines. Cells were treated with indicated BRD inhibitors at 3 μM for 7 days. Confluency was measured using an IncuCyte ZOOM live cell imaging device. Data shown are mean ± s.d. of n = 4 independent cell culture grown and treated cells. A two-sided Student’s t test was used to derive the p-values. b SLC2A1 gene expression in the The Cancer Genome Atlas (TCGA) breast datasets. The cohorts were divided into TNBCs (red) and non-TNBCs (blue) according to PAM50 classification. Gene expression is reported as median-centered expression log2 values. The number of patients (n) per group is indicated. P-values were determined using a Wilcoxon's rank-sum test. c Glucose uptake in MDA-MB-436 cells in response to BAY-876 treatment relative to vehicle. MDA-MB-436 cells were treated with dimethyl sulfoxide (DMSO) or 3 µM BAY-876 for 5 days. Graph indicates mean, error bars denote s.d. from three independent assays and p-value was computed using the Benjamini-Hochberg t test; ***p < 0.001. d Effects of BAY-876 treatment on the intracellular acetyl-CoA level. Graph indicates mean, error bars denote s.d. from three independent assays and p-value was computed using the Benjamini-Hochberg t test; ***p < 0.001. e Effects of BAY-876 treatment on intracellular NAD^+/NADH level. Graph indicates the mean, error bars denote s.d. from three independent assays and p-value computed using the Benjamini-Hochberg t test; **p < 0.01. f Immunoblot analysis of H3 and H4 acetylation in MDA-MB-436 cells before and after BAY-876 treatment. P-value computed using the Benjamini-Hochberg t test; ***p < 0.001. g Cell growth effects of BAY-876 treatment on three representative cell lines. n.s. not significant. h Combinatorial screening of BRD inhibitors with or without 3 μM BAY-876 across ten TNBC cell lines. Cell confluency was obtained from the endpoint Incucyte scanning. (Left) Heatmap of the combinatorial screening results; (Right) Cell confluency after treatment with three potential BRDi candidates at 3 μM in the presence or absence of 3 μM BAY-876 in three representative cell lines. Graph indicates mean, error bars denote s.d. from three independent assays and p-values were computed using the Benjamini-Hochberg t test; **p < 0.01; ***p < 0.001. Raw data images are available in Supplementary Fig. 4
TNBC cell lines were seeded in sterile, transparent 384-well plates at 500 cells per well in 50 µl media. Chemical probes were delivered in dimethyl sulfoxide (DMSO). Cell confluency at 7 days was evaluated using an Incucyte ZOOM live cell imaging device (Essen Bioscence) and analyzed with the Incucyte ZOOM (2016A) software based on phase contrast image.

[2] = molecular target: T1, HAT1 (Homo sapiens, UniProt O14929); test: Histone acetyltransferase (HAT) activity assay; type: biochemical; details: read-out: HATs Activity (%);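 note: HAT selectivity screen of BRD probe compounds, enzyme activity in % measured with compound at 1 µM and 10 µM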
T1 sequence (O14929 1-419): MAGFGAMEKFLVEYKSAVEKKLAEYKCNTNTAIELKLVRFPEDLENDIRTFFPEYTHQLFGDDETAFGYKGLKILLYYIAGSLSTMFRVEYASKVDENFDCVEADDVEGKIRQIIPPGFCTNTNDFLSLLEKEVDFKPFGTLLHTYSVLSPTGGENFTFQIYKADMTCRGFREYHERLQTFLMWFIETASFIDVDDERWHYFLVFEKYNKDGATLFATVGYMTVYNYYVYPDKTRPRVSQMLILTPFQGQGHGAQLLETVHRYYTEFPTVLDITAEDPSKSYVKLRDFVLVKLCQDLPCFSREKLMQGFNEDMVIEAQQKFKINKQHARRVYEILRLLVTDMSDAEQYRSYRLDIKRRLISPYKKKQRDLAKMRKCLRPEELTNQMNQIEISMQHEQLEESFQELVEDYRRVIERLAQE

[3] = tested on: ten TNBC cell lines; test: High-throughput screening of bromodomain inhibitors in TNBC panel (confluency); type: cell-based, human; details: 3 μM, 7 days
Protocol: Fig. 6 BRD inhibitors leverage metabolic adaptations induced by glucose transporter I (GLUT1) inhibition in TNBC. a BRD inhibitor screening across ten TNBC cell lines. Cells were treated with indicated BRD inhibitors at 3 μM for 7 days. Confluency was measured using an IncuCyte ZOOM live cell imaging device. Data shown are mean ± s.d. of n = 4 independent cell culture grown and treated cells. A two-sided Student’s t test was used to derive the p-values. b SLC2A1 gene expression in the The Cancer Genome Atlas (TCGA) breast datasets. The cohorts were divided into TNBCs (red) and non-TNBCs (blue) according to PAM50 classification. Gene expression is reported as median-centered expression log2 values. The number of patients (n) per group is indicated. P-values were determined using a Wilcoxon's rank-sum test. c Glucose uptake in MDA-MB-436 cells in response to BAY-876 treatment relative to vehicle. MDA-MB-436 cells were treated with dimethyl sulfoxide (DMSO) or 3 µM BAY-876 for 5 days. […]
TNBC cell lines were seeded in sterile, transparent 384-well plates at 500 cells per well in 50 µl media. […] Cell confluency at 7 days was evaluated using an Incucyte ZOOM live cell imaging device (Essen Bioscence) and analyzed with the Incucyte ZOOM (2016A) software based on phase contrast image.

[4] = molecular target: MYST3 (Homo sapiens, UniProt Q92794); test: Histone acetyltransferase (HAT) activity assay; type: biochemical; details: read-out: HATs Activity (%);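 note: selectivity screen of bromodomain probe compounds across a panel of histone acetyltransferases, read out as enzyme activity in %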
[5] = tested on: C2C12 myoblast cells; test: Gene-expression analysis (microarray); type: cell-based, mouse; details: 12 h; 500 nM (JQ1, LP-99), 2 μM (GSK2801, BAZ2-ICR, BSP)
Protocol: Total RNA was extracted using the PureLink^TM RNA mini kit (Thermo Fisher Scientific, 12183018A) as per the manufacturer’s protocol.
RNA samples were processed for oligonucleotide microarray profiling utilizing the Affymetrix Clariom^TM S Assay HT mouse. Quality controls were carried out in R (v.3.5.1) and Bioconductor[71] (v.3.7) using the arrayQualityMetrics package (v.3.36.0) taking into account array intensity distributions, distance between arrays, and variance mean dependence. Principal component analysis was used to decide which arrays to process together. After quality control, arrays were corrected for background, normalized, and log2-transformed together using the rma function of the oligo package (v.1.44)[73] in R/Bioconductor. Probes with small variance across samples were filtered out using the genefilter (v.1.62) package, employing the nsFilter function and an interquartile range cut-off of 0.28 (or >log(1.2), determined by the midpoint of the shortest interval containing half of the data). This reduced the number of probes of the Clariom^TM S array from 29,129 to 14,538.
Differential expression analysis was conducted using the limma package (v.3.36.2)[74], employing a linear model followed by empirical Bayesian analysis to determine differential expression between not-treated and treated samples.

[6] = molecular target: EP300 (Homo sapiens, UniProt Q09472); test: Histone acetyltransferase (HAT) activity assay; type: biochemical; details: read-out: HATs Activity (%);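 note: selectivity screen of bromodomain probe compounds against histone acetyltransferases, with enzyme activity given in percent for compounds tested at 1 and 10 µM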
[7] = tested on: BT-549 and MDA-MB436 cell lines; test: JQ1 dose-response with or without BAY-876; type: cell-based, human; details: with or without 3 μM BAY-876, 7 days
Protocol: and error bars denote standard deviation from three independent assays. p value computed using a one-way ANOVA test; ****** p<0.001. e) The colony formation of indicated cells with 3μM indicated chemical probes treatment for 14 days. f) MDA-MB436 cells were treated with 3μM indicated chemical probes for 5 days. Cell apoptotic activity was quantified by the fluorescent caspase 3/7 active objects. Graph indicate mean and error bars denote standard deviation from four independent assays. p value computed using one-way ANOVA t test; ****
Graph indicate mean and error bars denote standard deviation from four independent assays. p value computed using a two- stage step-up Benjamini t test i) Dose dependent
Graph indicate mean and error bars denote standard deviation from four independent assay s. p value computed using a two - stage step -up Benjamini t test j) Immunoblot based quantification of H3K14ac abundance using total H3 as a control in MDA-MB-436 cells following control or 3 μM of the indicated chemical probes during a 5-day treatment. Graph indicate mean and error bars denote standard deviation from three independent assays. p value computed using a two-stage step-up Benjamini t test; **p<0.01; *** p<0.001. k) Immunoblot based quantification of H3K14ac abundance using total […]

[8] = molecular target: GCN5L2 (Homo sapiens, UniProt Q92830); test: Histone acetyltransferase (HAT) activity assay; type: biochemical; details: read-out: HATs Activity (%);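 note: selectivity screen of BRD probe compounds across a panel of histone acetyltransferases, HAT activity in % with compound at 1 or 10 µM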
[9] = molecular target: T2, MYST1 (Homo sapiens, UniProt Q9H7Z6); test: Histone acetyltransferase (HAT) activity assay; type: biochemical; details: read-out: HATs Activity (%);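 note: selectivity screen across a panel of histone acetyltransferases, with compounds tested at 1 and 10 µM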
T2 sequence (Q9H7Z6 1-458): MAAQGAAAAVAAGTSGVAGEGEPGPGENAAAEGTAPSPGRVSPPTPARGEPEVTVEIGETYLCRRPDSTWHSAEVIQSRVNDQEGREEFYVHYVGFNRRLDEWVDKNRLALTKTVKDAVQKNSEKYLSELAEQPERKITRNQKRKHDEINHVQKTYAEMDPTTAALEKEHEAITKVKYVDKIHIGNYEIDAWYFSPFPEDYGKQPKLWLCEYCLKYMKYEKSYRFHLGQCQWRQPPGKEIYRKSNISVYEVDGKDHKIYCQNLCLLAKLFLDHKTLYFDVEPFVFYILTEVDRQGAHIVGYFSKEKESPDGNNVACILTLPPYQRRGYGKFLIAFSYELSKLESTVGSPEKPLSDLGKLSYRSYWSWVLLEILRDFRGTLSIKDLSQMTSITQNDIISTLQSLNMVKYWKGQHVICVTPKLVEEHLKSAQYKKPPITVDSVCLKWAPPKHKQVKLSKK

Chain of GCN5L2 (Q92830 whole entry, species assumed): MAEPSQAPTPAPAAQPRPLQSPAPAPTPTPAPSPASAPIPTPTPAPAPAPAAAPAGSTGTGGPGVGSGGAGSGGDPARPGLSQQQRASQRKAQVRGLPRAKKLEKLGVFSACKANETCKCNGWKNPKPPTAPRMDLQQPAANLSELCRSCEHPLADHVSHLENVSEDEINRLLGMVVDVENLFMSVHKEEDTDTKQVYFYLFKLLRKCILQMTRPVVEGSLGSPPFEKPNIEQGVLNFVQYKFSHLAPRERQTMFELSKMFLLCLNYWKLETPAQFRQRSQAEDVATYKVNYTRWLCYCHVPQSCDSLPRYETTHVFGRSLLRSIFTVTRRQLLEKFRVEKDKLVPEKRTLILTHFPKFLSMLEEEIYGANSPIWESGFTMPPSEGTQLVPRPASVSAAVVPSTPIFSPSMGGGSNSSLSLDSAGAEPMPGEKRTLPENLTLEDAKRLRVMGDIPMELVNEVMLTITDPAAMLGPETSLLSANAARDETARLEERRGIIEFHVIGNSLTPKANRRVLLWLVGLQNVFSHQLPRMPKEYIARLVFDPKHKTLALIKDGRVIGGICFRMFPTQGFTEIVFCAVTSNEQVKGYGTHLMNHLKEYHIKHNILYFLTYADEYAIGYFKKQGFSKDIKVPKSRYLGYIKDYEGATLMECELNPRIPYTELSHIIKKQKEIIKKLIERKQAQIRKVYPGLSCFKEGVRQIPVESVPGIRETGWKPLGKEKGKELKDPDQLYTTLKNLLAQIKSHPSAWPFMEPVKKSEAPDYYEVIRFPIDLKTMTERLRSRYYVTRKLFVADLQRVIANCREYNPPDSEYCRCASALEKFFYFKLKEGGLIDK
Chain of EP300 (Q09472 whole entry, species assumed): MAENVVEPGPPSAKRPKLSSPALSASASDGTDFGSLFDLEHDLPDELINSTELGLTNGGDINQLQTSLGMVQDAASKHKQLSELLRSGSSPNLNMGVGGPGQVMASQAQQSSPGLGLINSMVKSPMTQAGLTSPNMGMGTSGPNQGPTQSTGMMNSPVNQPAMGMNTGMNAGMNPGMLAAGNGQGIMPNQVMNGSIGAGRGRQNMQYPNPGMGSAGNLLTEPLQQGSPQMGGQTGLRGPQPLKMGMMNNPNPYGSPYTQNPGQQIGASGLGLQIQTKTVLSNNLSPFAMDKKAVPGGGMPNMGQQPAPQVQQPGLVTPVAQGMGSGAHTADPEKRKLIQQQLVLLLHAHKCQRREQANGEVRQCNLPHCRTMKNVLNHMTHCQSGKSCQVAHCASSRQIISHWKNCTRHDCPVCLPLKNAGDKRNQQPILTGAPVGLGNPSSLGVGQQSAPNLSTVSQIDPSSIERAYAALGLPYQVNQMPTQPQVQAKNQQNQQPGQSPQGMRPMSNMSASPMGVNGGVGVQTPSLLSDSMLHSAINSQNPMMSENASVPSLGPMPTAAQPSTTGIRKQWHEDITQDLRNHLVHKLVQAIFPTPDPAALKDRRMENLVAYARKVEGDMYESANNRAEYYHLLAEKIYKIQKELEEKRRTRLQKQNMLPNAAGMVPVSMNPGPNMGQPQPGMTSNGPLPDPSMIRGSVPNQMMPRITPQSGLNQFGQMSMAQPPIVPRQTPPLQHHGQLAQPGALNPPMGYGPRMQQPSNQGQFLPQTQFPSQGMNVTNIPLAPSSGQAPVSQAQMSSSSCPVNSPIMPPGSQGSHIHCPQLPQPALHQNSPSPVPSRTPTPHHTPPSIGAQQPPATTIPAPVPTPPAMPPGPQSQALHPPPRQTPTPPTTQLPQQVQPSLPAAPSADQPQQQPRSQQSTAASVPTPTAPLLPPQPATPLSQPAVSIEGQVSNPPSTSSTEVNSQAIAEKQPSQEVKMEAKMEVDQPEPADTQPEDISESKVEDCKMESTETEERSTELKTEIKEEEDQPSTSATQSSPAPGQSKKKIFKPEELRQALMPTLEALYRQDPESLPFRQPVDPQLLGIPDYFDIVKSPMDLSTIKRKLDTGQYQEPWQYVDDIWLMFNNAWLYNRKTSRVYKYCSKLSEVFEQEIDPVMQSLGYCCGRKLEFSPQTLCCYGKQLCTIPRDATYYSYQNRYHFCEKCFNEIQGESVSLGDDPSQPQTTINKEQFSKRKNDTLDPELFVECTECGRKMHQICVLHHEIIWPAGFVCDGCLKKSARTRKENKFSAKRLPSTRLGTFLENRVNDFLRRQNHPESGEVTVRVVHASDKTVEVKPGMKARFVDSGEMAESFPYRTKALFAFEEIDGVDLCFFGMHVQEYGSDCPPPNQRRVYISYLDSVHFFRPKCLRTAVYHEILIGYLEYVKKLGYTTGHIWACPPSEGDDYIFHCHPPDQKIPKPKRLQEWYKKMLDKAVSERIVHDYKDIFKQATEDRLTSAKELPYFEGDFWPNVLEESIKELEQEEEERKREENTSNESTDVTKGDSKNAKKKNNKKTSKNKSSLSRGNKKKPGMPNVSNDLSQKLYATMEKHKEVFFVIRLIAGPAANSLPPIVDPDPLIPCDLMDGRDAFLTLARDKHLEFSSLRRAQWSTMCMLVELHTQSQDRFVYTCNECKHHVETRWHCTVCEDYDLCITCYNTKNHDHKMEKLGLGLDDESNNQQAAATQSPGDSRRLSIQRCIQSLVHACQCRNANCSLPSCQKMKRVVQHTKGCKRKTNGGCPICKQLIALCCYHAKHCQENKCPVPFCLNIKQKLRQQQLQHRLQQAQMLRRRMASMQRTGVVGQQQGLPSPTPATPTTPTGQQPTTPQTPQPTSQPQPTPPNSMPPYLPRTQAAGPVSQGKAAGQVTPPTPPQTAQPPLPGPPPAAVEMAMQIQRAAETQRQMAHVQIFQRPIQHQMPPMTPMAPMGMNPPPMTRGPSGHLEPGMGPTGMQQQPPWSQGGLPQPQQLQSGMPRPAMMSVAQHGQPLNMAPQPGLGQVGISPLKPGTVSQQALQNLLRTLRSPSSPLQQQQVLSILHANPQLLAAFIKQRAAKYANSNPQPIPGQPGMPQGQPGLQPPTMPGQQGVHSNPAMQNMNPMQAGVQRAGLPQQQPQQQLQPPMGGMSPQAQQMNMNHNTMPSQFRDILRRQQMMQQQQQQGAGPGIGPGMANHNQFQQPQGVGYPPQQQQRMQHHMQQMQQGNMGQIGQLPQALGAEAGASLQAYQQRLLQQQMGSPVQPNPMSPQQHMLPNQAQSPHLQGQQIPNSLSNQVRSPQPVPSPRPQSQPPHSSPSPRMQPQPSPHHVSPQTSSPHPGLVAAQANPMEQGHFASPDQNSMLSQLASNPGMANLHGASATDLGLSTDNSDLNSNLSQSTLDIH

Cc1sc2c(c1C)C(c1ccc(Cl)cc1)=NC(CC(=O)OC(C)(C)C)c1nnc(C)n1-2 (centres unmarked) [JQ1]
combination effect with BAY-876 across the three cell lines [1]: efficacy in only one of the three tested TNBC lines | activity at 1 µM [2]: 98% | activity at 10 µM [2]: 103% | anti-proliferative effect (confluency) [3]: strong anti-proliferative effects | activity at 1 µM [4]: 108% | activity at 10 µM [4]: 100% | changes in gene-expression levels [5]: significant changes in gene-expression levels | activity at 1 µM [6]: 99% | activity at 10 µM [6]: 102% | synergy with BAY-876 [7]: no significant synergistic effect | activity at 1 µM [8]: 104% | activity at 10 µM [8]: 98% | activity at 1 µM [9]: 99% | activity at 10 µM [9]: 95%
